# Measured values reported in PubChem BioAssay (NCI).
#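 The compound was tested at five concentrations on cells cultured in 96-well plates, with a 48-hour exposure period. Here, GI50 denotes the concentration required for 50% inhibition of growth. TGI: concentration producing complete growth inhibition.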
# What was measured:
# Experiment in all cases: NCI tumour cell line growth inhibition, 48 h
# [1] = tested on: 786-0 renal
# [2] = tested on: A498 renal
# [3] = tested on: A549 NSCLC
# [4] = tested on: ACHN renal
# [5] = tested on: BT-549 breast
# [6] = tested on: CAKI-1 renal
# [7] = tested on: CCRF-CEM leukemia
# [8] = tested on: COLO 205 colon
# [9] = tested on: DU-145 prostate
# [10] = tested on: EKVX NSCLC
# [11] = tested on: HCC-2998 colon
# [12] = tested on: HCT-116 colon
# [13] = tested on: HCT-15 colon
# [14] = tested on: HL-60(TB) leukemia
# [15] = tested on: HOP-62 NSCLC
# [16] = tested on: HOP-92 NSCLC
# [17] = tested on: HS 578T breast
# [18] = tested on: HT29 colon
# [19] = tested on: IGROV1 ovarian
# [20] = tested on: K-562 leukemia
# [21] = tested on: KM12 colon
# [22] = tested on: LOX IMVI melanoma
# [23] = tested on: M14 melanoma
# [24] = tested on: MALME-3M melanoma
# [25] = tested on: MCF7 breast
# [26] = tested on: MDA-MB-231 breast
# [27] = tested on: MDA-MB-435
# [28] = tested on: MOLT-4 leukemia
# [29] = tested on: NCI-H226 lung
# [30] = tested on: NCI-H23 lung
# [31] = tested on: NCI-H460 lung
# [32] = tested on: NCI-H522 lung
# [33] = tested on: NCI/ADR-RES ovarian
# [34] = tested on: OVCAR-3 ovarian
# [35] = tested on: OVCAR-4 ovarian
# [36] = tested on: OVCAR-5 ovarian
# [37] = tested on: OVCAR-8 ovarian
# [38] = tested on: PC-3 prostate
# [39] = tested on: RPMI-8226 leukemia
# [40] = tested on: RXF 393 renal
# [41] = tested on: SF-268 CNS
# [42] = tested on: SF-295 CNS
# [43] = tested on: SF-539 CNS
# [44] = tested on: SK-MEL-2 melanoma
# [45] = tested on: SK-MEL-28 melanoma
# [46] = tested on: SK-MEL-5 melanoma
# [47] = tested on: SK-OV-3 ovarian
# [48] = tested on: SN12C renal
# [49] = tested on: SNB-19 CNS
# [50] = tested on: SNB-75 CNS
# [51] = tested on: SR leukemia
# [52] = tested on: SW-620 colon
# [53] = tested on: T-47D breast
# [54] = tested on: TK-10 renal
# [55] = tested on: U251 CNS
# [56] = tested on: UACC-257 melanoma
# [57] = tested on: UACC-62 melanoma
# [58] = tested on: UO-31 renal
structure (smiles),measurement,setting,value
NC(=O)C1(N2CCCCC2)CCN(CCCC(=O)c2ccc(F)cc2)CC1,GI50,[1],4590 nM
same,TGI,[1],43.2 µM
same,GI50,[2],2720 nM
same,TGI,[2],11.4 µM
same,GI50,[3],10.4 µM
same,TGI,[3],> 100 µM
same,GI50,[4],12.2 µM
same,TGI,[4],> 100000 nM
same,GI50,[5],44.3 nM
same,TGI,[5],14.1 µM
same,GI50,[6],26.6 µM
same,TGI,[6],> 100 µM
same,GI50,[7],121 nM
same,GI50,[8],715 nM
same,TGI,[8],6.89 µM
same,GI50,[9],2830 nM
same,TGI,[9],> 25.6 µM
same,GI50,[10],6.01 µM
same,TGI,[10],> 100 µM
same,GI50,[11],1780 nM
same,TGI,[11],6.19 µM
same,GI50,[12],777 nM
same,TGI,[12],> 100 µM
same,GI50,[13],24.7 µM
same,TGI,[13],> 100 µM
same,GI50,[14],801 nM
same,TGI,[14],4.19 µM
same,GI50,[15],3410 nM
same,TGI,[15],> 100 µM
same,GI50,[16],170 nM
same,TGI,[16],51.4 µM
same,GI50,[17],2.37 µM
same,TGI,[17],> 100 µM
same,GI50,[18],818 nM
same,TGI,[18],> 20 µM
same,GI50,[19],7.28 µM
same,TGI,[19],> 100 µM
same,GI50,[20],280 nM
same,TGI,[20],> 100 µM
same,GI50,[21],1390 nM
same,TGI,[21],67.6 µM
same,GI50,[22],254 nM
same,TGI,[22],> 100000 nM
same,GI50,[23],2280 nM
same,TGI,[23],7.72 µM
same,GI50,[24],0.264 µM
same,TGI,[24],> 100 µM
same,GI50,[25],108 nM
same,TGI,[25],> 100 µM
same,GI50,[26],3.56 µM
same,TGI,[26],> 71.8 µM
same,GI50,[27],70 nM
same,TGI,[27],396 nM
same,GI50,[28],1160 nM
same,TGI,[28],> 81.6 µM
same,GI50,[29],2340 nM
same,TGI,[29],8.81 µM
same,GI50,[30],1080 nM
same,TGI,[30],> 20.1 µM
same,GI50,[31],2700 nM
same,TGI,[31],> 100 µM
same,GI50,[32],96.5 nM
same,GI50,[33],29 µM
same,TGI,[33],> 100 µM
same,GI50,[34],117 nM
same,TGI,[34],1.58 µM
same,GI50,[35],8.72 µM
same,TGI,[35],> 100 µM
same,GI50,[36],6.96 µM
same,TGI,[36],> 100 µM
same,GI50,[37],4910 nM
same,TGI,[37],> 100 µM
same,GI50,[38],2330 nM
same,TGI,[38],> 100 µM
same,GI50,[39],208 nM
same,TGI,[39],> 100 µM
same,GI50,[40],2320 nM
same,TGI,[40],7.38 µM
same,GI50,[41],2600 nM
same,TGI,[41],> 70.9 µM
same,GI50,[42],2700 nM
same,TGI,[42],> 100 µM
same,GI50,[43],1420 nM
same,TGI,[43],13.6 µM
same,GI50,[44],0.0925 µM
same,TGI,[44],> 100 µM
same,GI50,[45],1.08 µM
same,TGI,[45],> 100 µM
same,GI50,[46],158 nM
same,TGI,[46],12.6 µM
same,GI50,[47],3.26 µM
same,TGI,[47],35.3 µM
same,GI50,[48],5.24 µM
same,TGI,[48],> 100 µM
same,GI50,[49],2860 nM
same,TGI,[49],> 100 µM
same,GI50,[50],147 nM
same,TGI,[50],> 100 µM
same,GI50,[51],76.1 nM
same,GI50,[52],173 nM
same,TGI,[52],> 100 µM
same,GI50,[53],> 100000 nM
same,TGI,[53],> 100 µM
same,GI50,[54],> 26000 nM
same,TGI,[54],> 100 µM
same,GI50,[55],263 nM
same,TGI,[55],> 100 µM
same,TGI,[56],> 100 µM
same,GI50,[57],219 nM
same,TGI,[57],> 100 µM
same,GI50,[58],17.2 µM
same,TGI,[58],> 100 µM
OB1OCc2cc(/C=C/c3cccc(C(F)(F)F)c3)ccc21,GI50,[1],365 nM
same,TGI,[1],10.1 µM
same,GI50,[2],1130 nM
same,TGI,[2],9.22 µM
same,GI50,[3],0.695 µM
same,TGI,[3],19.6 µM
same,GI50,[4],0.332 µM
same,TGI,[4],1340 nM
same,GI50,[5],2260 nM
same,TGI,[5],> 100 µM
same,GI50,[6],0.349 µM
same,TGI,[6],10.2 µM
same,GI50,[7],459 nM
same,TGI,[7],33.7 µM
same,GI50,[8],2310 nM
same,TGI,[8],> 100 µM
same,GI50,[9],554 nM
same,TGI,[9],15.3 µM
same,GI50,[10],3.65 µM
same,TGI,[10],> 100 µM
same,GI50,[11],2540 nM
same,TGI,[11],> 100 µM
same,GI50,[12],890 nM
same,TGI,[12],11.8 µM
same,GI50,[13],1.33 µM
same,TGI,[13],> 100 µM
same,GI50,[14],298 nM
same,TGI,[14],5.38 µM
same,GI50,[15],483 nM
same,TGI,[15],17.4 µM
same,GI50,[16],712 nM
same,TGI,[16],10.7 µM
same,GI50,[17],4.49 µM
same,TGI,[17],66.6 µM
same,GI50,[18],1440 nM
same,TGI,[18],> 100 µM
same,GI50,[19],1.88 µM
same,TGI,[19],60.2 µM
same,GI50,[20],930 nM
same,TGI,[20],24.2 µM
same,GI50,[21],2260 nM
same,TGI,[21],> 100 µM
same,GI50,[22],302 nM
same,TGI,[22],1250 nM
same,GI50,[23],653 nM
same,TGI,[23],35.3 µM
same,GI50,[24],7.65 µM
same,TGI,[24],54.3 µM
same,GI50,[25],452 nM
same,TGI,[25],44.4 µM
same,GI50,[26],2.62 µM
same,TGI,[26],11.1 µM
same,GI50,[27],5290 nM
same,TGI,[27],> 100000 nM
same,GI50,[28],454 nM
same,TGI,[28],12.9 µM
same,GI50,[29],2520 nM
same,TGI,[29],56.4 µM
same,GI50,[30],625 nM
same,TGI,[30],80.6 µM
same,GI50,[31],480 nM
same,TGI,[31],22.8 µM
same,GI50,[32],991 nM
same,TGI,[32],87.9 µM
same,GI50,[33],0.544 µM
same,TGI,[33],23.9 µM
same,GI50,[34],1370 nM
same,TGI,[34],17.8 µM
same,GI50,[35],1.86 µM
same,TGI,[35],17.3 µM
same,GI50,[36],5.15 µM
same,TGI,[36],> 100 µM
same,GI50,[37],918 nM
same,TGI,[37],24.2 µM
same,GI50,[38],1880 nM
same,TGI,[38],> 100 µM
same,GI50,[39],2380 nM
same,TGI,[39],> 100 µM
same,GI50,[40],2230 nM
same,TGI,[40],11.4 µM
same,GI50,[41],564 nM
same,TGI,[41],48.1 µM
same,GI50,[42],432 nM
same,TGI,[42],16.1 µM
same,GI50,[43],405 nM
same,TGI,[43],11.1 µM
same,GI50,[44],46.1 µM
same,TGI,[44],> 100 µM
same,GI50,[45],18.8 µM
same,TGI,[45],> 100 µM
same,GI50,[46],2050 nM
same,TGI,[46],81.4 µM
same,GI50,[47],2.9 µM
same,TGI,[47],63.5 µM
same,GI50,[48],1.46 µM
same,TGI,[48],> 100 µM
same,GI50,[49],765 nM
same,TGI,[49],48.7 µM
same,GI50,[50],852 nM
same,TGI,[50],6.2 µM
same,GI50,[51],318 nM
same,TGI,[51],11.6 µM
same,GI50,[52],1570 nM
same,TGI,[52],> 100 µM
same,GI50,[53],425 nM
same,TGI,[53],> 100 µM
same,GI50,[54],2460 nM
same,TGI,[54],34.1 µM
same,GI50,[55],640 nM
same,TGI,[55],17.3 µM
same,GI50,[56],4.31 µM
same,TGI,[56],> 100 µM
same,GI50,[57],551 nM
same,TGI,[57],63.4 µM
same,GI50,[58],0.551 µM
same,TGI,[58],20.3 µM
